Experiments:
[1] = Dye concentration in saturated acetone solution at room temperature; format: physicochemical; conditions: 72 hours at RT, 0.45 micron PTFE filtered, absorbance at 535 nm
Experimental: Examples 4-7 were prepared by placing 60-100 mg of each of the compounds of Examples 1-3 and 6-methoxy-14H-anthra(2,1,9-mna)thioxanthene-14-one (described by Carlini et al.) in a vial with 5.0 ml acetone. […] Each vial was hand shaken and the solution was filtered using a 0.45 micron polytetrafluoroethylene (PTFE) filter commercially available from VWR Scientific Products, West Chester, Pa. under the trade designation “Acrodisc 13CR PTFE”.
The amount of fluorescent dye in the saturated acetone solution was determined by measuring the major dye absorption band at 535 nm using a UV-Vis Spectrophotometer commercially available from Shimadzu Scientific Instruments, Inc., Columbia, Md. under the trade designation “Shimadzu model UV-2401PC”. Dye concentrations were calculated by measuring the absorbance of the saturated acetone solution, and then diluting that solution until absorbance of the resulting solution was below 3. The dyes were assumed to have equal absorbance per mole. Using the dilution and an absorbance coefficient of 16,100 A/mol/L (coefficient obtained in acetone for the dye of Example 3) and assuming a Beer's Law relationship, the concentration of dye in each saturated solution was calculated and is set out in TABLE I

[2] = Daytime color and visual inspection of PMMA film with dye laminated to retroreflective sheeting; format: physicochemical
Experimental: The daytime color of each article was measured using a Labsphere BFC-450 Bispectral Colorimeter commercially available from Labsphere, North Sutton, N.H. The daytime chromaticity (x,y), total luminance factor (YT), and fluorescence luminance factor (YF; which is a measure of the fluorescent properties of the article) calculated for the CIE D65 and the CIE 1931 observer are provided in TABLE II
Examples 11-16 were prepared with the compounds of Examples 1-2 and 6-methoxy-14H-anthra(2,1,9-mna)thioxanthene-14-one in polymethylmethacrylate (PMMA) resin at the wt.-% of dye shown in TABLE III. The samples were prepared by dry blending the dye with a medium impact modified grade PMMA resin commercially available from Ineos Acrylics Inc., Cordova, Tenn. under the trade designation “CP923”. Films of 0.1 mm thickness were extruded through a single screw extruder with three heating zones set at 249° C. to 260° C. […] Examples 11 and 12 and Examples 13 and 14 had equal molar loadings of dye.
The resultant films were laminated to Scotchlite 3970 reflective sheeting on aluminum panels as described in Examples 8-10. Color values were measured as described in Examples 8-10 and the results set out in TABLE III.

[3] = dye 0.2 wt-% in PMMA CP923, 0.1 mm film on Scotchlite 3970
[4] = dye 0.38 wt-% in PMMA CP923, 0.1 mm film on Scotchlite 3970
[5] = dye 1.27 wt-% in PMMA CP923, 0.1 mm film on Scotchlite 3970

For `CCCCCCCCOc1cc2c3ccccc3c(=O)c3ccc4c5ccccc5sc1c4c32` [Example 1, 6-n-Octyloxy-14H-anthra(2,1,9mna)thioxanthene-14-one], which “Dye Concentration in Acetone at RT” value [1] is on record?
Its value is 0.19 mg/mL.

What about the “fluorescence relative to articles with the 6-methoxy dye” value ([2]; PMMA films, equal molar loadings of dye, by fluorescence luminance factor) of the same compound?
Its value is “higher fluorescence”.

What about the “X (daytime chromaticity)” value [2, 3] of the same compound?
The value was 0.5210.

And the “YF (fluorescence luminance factor)” value [2, 3]?
Its value is 16.83.

And the “YT (total luminance factor)” value [2, 3]?
Its value is 30.85.

What about the “y (daytime chromaticity)” value [2, 3] of the same compound?
Its value is 0.3252.

What about the “X (daytime chromaticity)” value [2, 4] of the same compound?
The value was 0.5923.

And the “YF (fluorescence luminance factor)” value [2, 4]?
Its value is 13.74.

And the “YT (total luminance factor)” value [2, 4]?
Its value is 19.96.

And the “y (daytime chromaticity)” value [2, 4]?
The value was 0.3022.

And the “X (daytime chromaticity)” value [2, 5]?
Its value is 0.6305.

What about the “YF (fluorescence luminance factor)” value [2, 5] of the same compound?
The value was 4.97.

What about the “YT (total luminance factor)” value [2, 5] of the same compound?
The value was 7.80.

What about the “y (daytime chromaticity)” value [2, 5] of the same compound?
Its value is 0.3008.

And the “visual inspection of film for undissolved dye” value ([2]; extruded PMMA CP923 film 0.1 mm, 6-methoxy dye at 1 wt.-%, dyes of Examples 1-2 at up to 1.27 wt-%)?
Its value is “uniform appearance with no undissolved dye seen”.
